Results: the NIST ThermoML archive (doi:10.1021/acs.jced.7b00452)
Numbers after ± are expanded uncertainties.

Experiments:
[1] = mn = molality of the nth substance listed, in mol/kg; conditions: 101.3 kPa, Liquid; for speed of sound: Single path-length method; for mass density: Vibrating tube method
[2] = 318.15 K; 101.3 kPa; Liquid; Single path-length method

Row | Structure (SMILES) | speed of sound ([1]; 298.15 K, m1 = 0.025) [m/s] | speed of sound ([1]; 298.15 K, m1 = 0.05) [m/s] | mass density ([1]; 298.15 K, m1 = 0.025) [kg/m3] | mass density ([1]; 298.15 K, m1 = 0.05) [kg/m3] | speed of sound ([1]; 308.15 K, m1 = 0.025) [m/s] | speed of sound ([1]; 308.15 K, m1 = 0.05) [m/s] | mass density ([1]; 308.15 K, m1 = 0.025) [kg/m3] | mass density ([1]; 308.15 K, m1 = 0.05) [kg/m3] | speed of sound ([1]; 318.15 K, m1 = 0.025) [m/s] | speed of sound ([1]; 318.15 K, m1 = 0.05) [m/s] | mass density ([1]; 318.15 K, m1 = 0.025) [kg/m3] | mass density ([1]; 318.15 K, m1 = 0.05) [kg/m3] | speed of sound [2] [m/s] | speed of sound ([1]; 318.15 K, m2 = 0) [m/s]
1 | C[C@H](N)C(=O)O [(S)-2-aminopropanoic acid] + O | 1498.8 ± 1 | 1500 ± 1 | 997.765 ± 0.1 | 998.484 ± 0.1 | 1521.6 ± 1 | 1522.7 ± 1 | 994.741 ± 0.1 | 995.466 ± 0.1 | 1538 ± 1 | 1539.2 ± 1 | 990.91 ± 0.11 | 991.637 ± 0.11 | – | –
2 | CC(C)[C@H](N)C(=O)O [L-valine] + O | 1498.9 ± 1 | 1501.7 ± 1 | 997.706 ± 0.1 | 998.248 ± 0.1 | 1521.7 ± 1 | 1524.2 ± 1 | 994.661 ± 0.1 | 995 ± 0.1 | 1537.7 ± 1 | 1540.2 ± 1 | 990.798 ± 0.1 | 991.103 ± 0.1 | – | –
3 | O [water] | – | – | – | – | – | – | – | – | – | – | – | – | 1536.7 ± 1 | –
4 | O [water] + CCN(CC)CCNC(=O)c1ccc(N)cc1.Cl | – | – | – | – | – | – | – | – | – | – | – | – | – | 1536.7 ± 1
